Assay results as given in US20100267561A1, “HERBICIDAL PYRIDAZINONE DERIVATIVES” (priority 2007, published 2010).

Legend:
Assay in all cases: Test B pre-/postemergence plant response
Assay type in all cases: in vivo
kochia (Kochia scoparia) = test system: kochia (Kochia scoparia)
Method in brief: (§1)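 Preemergence and postemergence (plants 2-18 cm, 1- to 4-leaf stage) applications used test chemicals in a non-phytotoxic solvent with surfactant. Plants were held in a greenhouse 13 to 15 days, then rated visually against controls on a 0-100 scale (0 no effect, 100 complete control).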

[1] = test system: morningglory (Ipomoea coccinea)
Method in brief: as §1

[2] = test system: wheat (Triticum aestivum)
Method in brief: as §1

[3] = test system: cocklebur (Xanthium strumarium)
Method in brief: as §1

[4] = test system: johnsongrass (Sorghum halepense)
Method in brief: as §1

[5] = test system: surinam grass (Brachiaria decumbens)
Method in brief: as §1

[6] = test system: common ragweed (Ambrosia elation)
Method in brief: as §1

[7] = test system: lambsquarters (Chenopodium album)
Method in brief: as §1

[8] = test system: Italian ryegrass (Lolium multiflorum)
Method in brief: as §1

[9] = test system: velvetleaf (Abutilon theophrasti)
Method in brief: as §1

[10] = test system: goosegrass (Eleusine indica)
Method in brief: as §1

[11] = test system: bermudagrass (Cynodon dactylon)
Method in brief: as §1

soybean (Glycine max) = test system: soybean (Glycine max)
Method in brief: as §1

[12] = test system: common (oilseed) sunflower (Helianthus annuus); conditions: Preemergence
Method in brief: as §1

[13] = Postemergence, 31 g ai/ha, scale 0 to 100, 0 no effect, 100 complete control
[14] = Postemergence, 62 g ai/ha, scale 0 to 100
[15] = Postemergence, 125 g ai/ha, scale 0 to 100
[16] = Postemergence, 250 g ai/ha, scale 0 to 100
[17] = Preemergence, 31 g ai/ha, 0 to 100 scale, 0 no effect, 100 complete control
[18] = Preemergence, 125 g ai/ha, scale 0 to 100
[19] = Preemergence, 250 g ai/ha, scale 0 to 100
[20] = Preemergence, 62 g ai/ha, scale 0 to 100

Cc1cc(-c2ccc(Br)cc2)nn1-c1c(O)cnn(C)c1=O [Compound 4]
Plant response rating, Kochia (kochia (Kochia scoparia); [13]): 0 | Plant response rating, Kochia (kochia (Kochia scoparia); [14]): 0 | Plant response rating, Kochia (kochia (Kochia scoparia); [15]): 60 | Plant response rating, Kochia (kochia (Kochia scoparia); [16]): 70 | Plant response rating, Kochia (kochia (Kochia scoparia); [17]): 0 | Plant response rating, Kochia (kochia (Kochia scoparia); [18]): 0 | Plant response rating, Kochia (kochia (Kochia scoparia); [19]): 0 | Plant response rating, Morningglory [1, 13]: 0 | Plant response rating, Morningglory [1, 14]: 0 | Plant response rating, Morningglory [1, 15]: 0 | Plant response rating, Morningglory [1, 16]: 0 | Plant response rating, Morningglory [1, 17]: 0 | Plant response rating, Morningglory [1, 20]: 0 | Plant response rating, Morningglory [1, 18]: 0 | Plant response rating, Morningglory [1, 19]: 30 | Plant response rating, Wheat [2, 13]: 90 | Plant response rating, Wheat [2, 14]: 100 | Plant response rating, Wheat [2, 15]: 100 | Plant response rating, Wheat [2, 16]: 100 | Plant response rating, Wheat [2, 17]: 60 | Plant response rating, Wheat [2, 20]: 95 | Plant response rating, Wheat [2, 18]: 100 | Plant response rating, Wheat [2, 19]: 100 | Plant response rating, Cocklebur [3, 13]: 0 | Plant response rating, Cocklebur [3, 14]: 0 | Plant response rating, Cocklebur [3, 15]: 0 | Plant response rating, Cocklebur [3, 16]: 0 | Plant response rating, Cocklebur [3, 17]: 0 | Plant response rating, Cocklebur [3, 20]: 0 | Plant response rating, Cocklebur [3, 18]: 0 | Plant response rating, Cocklebur [3, 19]: 30 | Plant response rating, Johnsongrass [4, 13]: 80 | Plant response rating, Johnsongrass [4, 15]: 100 | Plant response rating, Johnsongrass [4, 17]: 0 | Plant response rating, Johnsongrass [4, 20]: 30 | Plant response rating, Johnsongrass [4, 18]: 100 | Plant response rating, Johnsongrass [4, 19]: 100 | Plant response rating, Surinam Grass [5, 13]: 100 | Plant response rating, Surinam Grass [5, 14]: 100 | Plant response rating, Surinam Grass [5, 15]: 100 | Plant response rating, Surinam Grass [5, 16]: 100 | Plant response rating, Surinam Grass [5, 17]: 100 | Plant response rating, Surinam Grass [5, 20]: 100 | Plant response rating, Surinam Grass [5, 18]: 100 | Plant response rating, Surinam Grass [5, 19]: 100 | Plant response rating, Ragweed [6, 13]: 0 | Plant response rating, Ragweed [6, 14]: 0 | Plant response rating, Ragweed [6, 15]: 50 | Plant response rating, Ragweed [6, 16]: 80 | Plant response rating, Ragweed [6, 17]: 0 | Plant response rating, Ragweed [6, 20]: 0 | Plant response rating, Ragweed [6, 18]: 0 | Plant response rating, Ragweed [6, 19]: 0 | Plant response rating, Lambsquarters [7, 13]: 0 | Plant response rating, Lambsquarters [7, 14]: 0 | Plant response rating, Lambsquarters [7, 15]: 60 | Plant response rating, Lambsquarters [7, 16]: 80 | Plant response rating, Lambsquarters [7, 20]: 85 | Plant response rating, Lambsquarters [7, 18]: 85 | Plant response rating, Lambsquarters [7, 19]: 90 | Plant response rating, Ryegrass, Italian [8, 13]: 100 | Plant response rating, Ryegrass, Italian [8, 14]: 100 | Plant response rating, Ryegrass, Italian [8, 15]: 100 | Plant response rating, Ryegrass, Italian [8, 16]: 100 | Plant response rating, Ryegrass, Italian [8, 17]: 100 | Plant response rating, Ryegrass, Italian [8, 20]: 100 | Plant response rating, Ryegrass, Italian [8, 18]: 100 | Plant response rating, Ryegrass, Italian [8, 19]: 100 | Plant response rating, Velvetleaf [9, 13]: 5 | Plant response rating, Velvetleaf [9, 14]: 5 | Plant response rating, Velvetleaf [9, 15]: 20 | Plant response rating, Velvetleaf [9, 16]: 45 | Plant response rating, Velvetleaf [9, 17]: 0 | Plant response rating, Velvetleaf [9, 20]: 0 | Plant response rating, Velvetleaf [9, 18]: 40 | Plant response rating, Velvetleaf [9, 19]: 50 | Plant response rating, Goosegrass [10, 13]: 95 | Plant response rating, Goosegrass [10, 14]: 100 | Plant response rating, Goosegrass [10, 15]: 100 | Plant response rating, Goosegrass [10, 16]: 100 | Plant response rating, Goosegrass [10, 17]: 85 | Plant response rating, Goosegrass [10, 20]: 100 | Plant response rating, Goosegrass [10, 18]: 100 | Plant response rating, Goosegrass [10, 19]: 100 | Bermudagrass plant response rating ([11]; 250 g ai/ha, preemergence, 0-100 scale): 100 | Plant response rating, Bermudagrass [11, 13]: 100 | Plant response rating, Bermudagrass [11, 14]: 100 | Plant response rating, Bermudagrass [11, 15]: 100 | Plant response rating, Bermudagrass [11, 16]: 100 | Plant response rating, Bermudagrass [11, 17]: 100 | Plant response rating, Bermudagrass [11, 20]: 100 | Plant response rating, Bermudagrass [11, 18]: 100 | Plant response rating, Soybean (soybean (Glycine max); [13]): 20 | Plant response rating, Soybean (soybean (Glycine max); [14]): 30 | Plant response rating, Soybean (soybean (Glycine max); [15]): 90 | Plant response rating, Soybean (soybean (Glycine max); [16]): 90 | Plant response rating, Soybean (soybean (Glycine max); [17]): 0 | Plant response rating, Soybean (soybean (Glycine max); [20]): 0 | Plant response rating, Soybean (soybean (Glycine max); [18]): 0 | Plant response rating, Soybean (soybean (Glycine max); [19]): 20 | Plant response rating, Sunflower ([12]; 31 g ai/ha, 0 to 100 scale, 0 no effect, 100 complete control): 0 | Plant response rating, Sunflower ([12]; 62 g ai/ha, scale 0 to 100): 0 | Plant response rating, Sunflower ([12]; 125 g ai/ha, scale 0 to 100): 0 | Plant response rating, Sunflower ([12]; 250 g ai/ha, scale 0 to 100): 70
